From patent US10898481B2 (priority 2018, dated 2021)

How the values were obtained:
[1] = biological target: hADORA1/CHO (hA1 expressing) cells (Homo sapiens (Human), UniProt P30542); experiment: cell-based; settings: FLIPR inhibition, 10 μM adenosine, read-out: cAMP & FLIPR IC50 (nM) hA1
hA2a/CHO = hA2a/CHO (Homo sapiens (Human), UniProt P29274); experiment: cAMP inhibition assay in hA2a/CHO cells, 10 μM adenosine; type: cell-based; settings: read-out: cAMP & FLIPR IC50 (nM) hA2a;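 also: compounds added to cells 30 min ahead of adenosine, then a further 30 min at 37 °C with adenosine before cAMP detection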
Procedure: (§1) hA2a/CHO, hA2b/CHO, hA3/CHO and mA2a/CHO (Genscript) were plated at 5×10^3 cells/well into 384-well polystyrene plates at the day of experiment. Compounds were pre-incubated with cells for 30 min at 37° C., 5% CO2. Then 10 μM adenosine was added to the cells and incubated for 30 min at 37° C., 5% CO2. Detection reagent (CISBIO) was added and the plates were incubated for 60 min at room temperature. The signal was captured by Envision.

hA2b/CHO = hA2b/CHO (Homo sapiens (Human), UniProt P29275); experiment: cAMP inhibition assay in hA2b/CHO cells, 10 μM adenosine; type: cell-based; settings: read-out: cAMP & FLIPR IC50 (nM) hA2b;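 also: cells exposed to compound 30 min at 37 °C, then stimulated with adenosine a further 30 min, cAMP read after 60 min at room temperature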
Procedure: as §1

mA2a/CHO = mA2a/CHO (Mus musculus (Mouse), UniProt Q60613); experiment: cAMP inhibition assay in mA2a/CHO cells, 10 μM adenosine; type: cell-based; settings: read-out: cAMP & FLIPR IC50 (nM) mA2a;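 also: compounds preincubated 30 min at 37 °C before the adenosine challenge, then 30 min further stimulation, readout after 60 min detection reagent incubation at room temperature in 384-well plates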
mA2a/CHO, sequence (Q60613 whole entry): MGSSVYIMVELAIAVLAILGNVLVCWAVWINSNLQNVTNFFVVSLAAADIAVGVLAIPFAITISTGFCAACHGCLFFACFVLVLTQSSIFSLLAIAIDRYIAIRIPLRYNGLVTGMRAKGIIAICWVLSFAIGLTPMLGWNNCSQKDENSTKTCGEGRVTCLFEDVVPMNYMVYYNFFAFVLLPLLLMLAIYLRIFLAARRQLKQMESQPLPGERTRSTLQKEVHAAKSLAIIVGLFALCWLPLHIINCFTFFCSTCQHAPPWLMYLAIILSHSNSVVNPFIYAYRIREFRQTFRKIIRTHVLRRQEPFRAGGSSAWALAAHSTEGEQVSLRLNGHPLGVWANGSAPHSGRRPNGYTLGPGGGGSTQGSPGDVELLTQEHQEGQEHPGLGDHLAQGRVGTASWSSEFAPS
Procedure: as §1

hADORA1/CHO (hA1 expressing) cells, sequence (P30542 whole entry): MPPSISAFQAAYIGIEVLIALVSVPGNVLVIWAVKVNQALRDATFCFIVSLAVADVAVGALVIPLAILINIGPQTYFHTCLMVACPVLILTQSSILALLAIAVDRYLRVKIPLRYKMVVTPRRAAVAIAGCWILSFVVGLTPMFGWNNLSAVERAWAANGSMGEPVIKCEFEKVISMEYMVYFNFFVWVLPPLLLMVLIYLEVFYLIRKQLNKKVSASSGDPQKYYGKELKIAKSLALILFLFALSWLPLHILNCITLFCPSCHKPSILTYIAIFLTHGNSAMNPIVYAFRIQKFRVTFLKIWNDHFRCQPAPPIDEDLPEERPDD
hA2a/CHO, sequence (P29274 whole entry): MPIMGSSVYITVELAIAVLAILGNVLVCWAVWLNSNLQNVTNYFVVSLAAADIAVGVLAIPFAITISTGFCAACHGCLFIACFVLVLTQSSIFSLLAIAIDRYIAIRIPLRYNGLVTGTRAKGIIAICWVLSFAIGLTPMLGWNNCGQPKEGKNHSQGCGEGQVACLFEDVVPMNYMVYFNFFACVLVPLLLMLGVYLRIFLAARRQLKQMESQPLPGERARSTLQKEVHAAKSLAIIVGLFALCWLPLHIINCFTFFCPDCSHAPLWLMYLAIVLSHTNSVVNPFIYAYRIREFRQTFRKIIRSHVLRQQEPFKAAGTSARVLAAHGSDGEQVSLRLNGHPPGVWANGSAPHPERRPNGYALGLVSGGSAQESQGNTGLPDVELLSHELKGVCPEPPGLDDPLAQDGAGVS
hA2b/CHO, sequence (P29275 whole entry): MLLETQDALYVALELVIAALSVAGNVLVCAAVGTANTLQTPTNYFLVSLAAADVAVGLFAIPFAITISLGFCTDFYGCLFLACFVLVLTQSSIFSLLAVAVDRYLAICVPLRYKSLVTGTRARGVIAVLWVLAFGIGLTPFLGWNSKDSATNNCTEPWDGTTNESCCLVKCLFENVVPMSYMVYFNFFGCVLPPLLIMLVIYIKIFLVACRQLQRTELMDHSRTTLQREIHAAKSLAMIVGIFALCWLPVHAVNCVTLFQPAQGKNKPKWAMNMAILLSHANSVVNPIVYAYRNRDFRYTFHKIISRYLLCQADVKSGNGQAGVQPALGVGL

| Structure (SMILES) | IC50 [1] [nM] | IC50 (hA2a/CHO) [nM] | IC50 (hA2b/CHO) [nM] | IC50 (mA2a/CHO) [nM] |
| --- | --- | --- | --- | --- |
| COc1ccccc1CNC(=O)c1nc(-c2ccc(=O)n(C(F)F)c2)c(-c2ccc(F)cc2)nc1N [Example 76, 3-amino-6-(1-(difluoromethyl)-6-oxo-1,6-dihydropyridin-3-yl)-5-(4-fluorophenyl)-N-(2-methoxybenzyl) pyrazine-2-carboxamide] | 68 | 4.2 | 76 | 22 |
| COc1ccccc1CNC(=O)c1nc(-c2cc(C)nc(C)c2)c(-n2nccc2C)nc1N [Example 74, 3-amino-6-(2,6-dimethylpyridin-4-yl)-N-(2-methoxybenzyl)-5-(5-methyl-1H-pyrazol-1-yl)pyrazine-2-carboxamide] | 216 | 44 | ≥ 10000 | 1950 |
| Cn1cc(-c2nc(C(=O)NCc3ccccc3OC(F)F)c(N)nc2-c2ccc(F)cc2)ccc1=O [Example 72, 3-amino-N-(2-(difluoromethoxy)benzyl)-5-(4-fluorophenyl)-6-(1-methyl-6-oxo-1,6-dihydropyridin-3-yl)pyrazine-2-carboxamide] | 14 | 1.3 | 23 | 8.1 |
| Cc1cnc2ccc(-c3nc(C(=O)NC[C@@H]4CCCO4)c(N)nc3-n3nccn3)cn12 [Example 226, (S)-3-amino-6-(3-methylimidazo[1,2-a]pyridin-6-yl)-N-((tetrahydrofuran-2-yl)methyl)-5-(2H-1,2,3-triazol-2-yl) pyrazine-2-carboxamide] | 947 | 3 | 177 | 30 |
| COC(C)CNC(=O)c1nc(-c2ccc3ncc(C)n3c2)c(-c2ncco2)nc1N (single isomer, unassigned; isomer 1) [Example 248, 3-amino-N-(2-methoxypropyl)-6-(3-methylimidazo[1,2-a]pyridin-6-yl)-5-(oxazol-2-yl)pyrazine-2-carboxamide (isomer 1)] | 121 | 2.9 | 140 | 18 |
| Cn1cc(-c2nc(C(=O)NCc3c(F)cccc3N3CCOCC3)c(N)nc2-c2ncco2)ccc1=O [Example 39, 3-amino-N-[[2-fluoro-6-(morpholin-4-yl)phenyl]methyl]-6-(1-methyl-6-oxo-1,6-dihydropyridin-3-yl)-5-(1,3-oxazol-2-yl)pyrazine-2-carboxamide] | 32 | 7.8 | 2120 | 3.3 |
| Cc1cc(-c2nc(CNC(=O)c3ccccn3)c(N)nc2-c2ccc(F)cc2)cc(C)n1 [Example 8, N-[[3-amino-6-(2,6-dimethylpyridin-4-yl)-5-(4-fluorophenyl)pyrazin-2-yl]methyl]pyridine-2-carboxamide] | 3400 | 116 | ≥ 10000 | 390 |
| Cc1cnc2ccc(-c3nc(C(=O)NCC4CCC(=O)N4C)c(N)nc3-c3ncco3)cn12 (racemic) [Example 212, rac-3-amino-N-((1-methyl-5-oxopyrrolidin-2-yl)methyl)-6-(3-methylimidazo [1,2-a]pyridin-6-yl)-5-(oxazol-2-yl) pyrazine-2-carboxamide] | > 10000 | 34 | 3430 | 175 |
| Cc1cnc2ccc(-c3nc(C(=O)NCc4cccc(N5CC6(CCN6C)C5)n4)c(N)nc3-c3ncco3)cn12 [Example 171, 3-amino-N-[(6-[1-methyl-1,6-diazaspiro[3.3]heptan-6-yl]pyridin-2-yl)methyl]-6-[3-methylimidazo[1,2-a]pyridin-6-yl]-5-(1,3-oxazol-2-yl)pyrazine-2-carboxamide] | 589 | 1 | 228 | 15 |
| COc1ccccc1CNC(=O)c1nc(-c2cc(C)nc(C)c2)c(-n2cccn2)nc1N [Example 56, 3-amino-6-(2,6-dimethylpyridin-4-yl)-N-(2-methoxybenzyl)-5-(1H-pyrazol-1-yl)pyrazine-2-carboxamide] | 940 | 28 | ≥ 10000 | 623 |
| Cc1cnc2ccc(-c3nc(C(=O)NC[C@@H](C)O)c(N)nc3-c3ncco3)cn12 [Example 145, (R)-3-amino-N-(2-hydroxypropyl)-6-(3-methylimidazo[1,2-a]pyridin-6-yl)-5-(oxazol-2-yl)pyrazine-2-carboxamide] | 10000 | 32 | 789 | 205 |
| Cc1cnc2ccc(-c3nc(C(=O)NCC4(C)CCCN4C)c(N)nc3-c3ncco3)cn12 (single isomer, unassigned; isomer 2) [Example 247, 3-amino-N-((1,2-dimethylpyrrolidin-2-yl)methyl)-6-(3-methylimidazo[1,2-a]pyridin-6-yl)-5-(oxazol-2-yl)pyrazine-2-carboxamide (isomer 2)] | 1490 | 36 | 2000 | 345 |
| Cn1cnc2ccc(-c3nc(C(=O)NCc4ncccc4OCC(N)=O)c(N)nc3-c3ccc(F)cc3)cc21 [Example 119, 3-amino-N-[[3-(carbamoylmethoxy)pyridin-2-yl]methyl]-5-(4-fluorophenyl)-6-(1-methyl-1H-1,3-benzodiazol-6-yl)pyrazine-2-carboxamide] | 41 | 1.1 | 31 | 4.7 |
| Cc1ccc(-c2nc(N)c(C(=O)NCc3c(F)cccc3F)nc2-c2ccc(=O)n(C)c2)o1 [Example 2, 3-amino-N-[(2,6-difluorophenyl)methyl]-6-(1-methyl-6-oxo-1,6-dihydropyridin-3-yl)-5-(5-methylfuran-2-yl)pyrazine-2-carboxamide] | 26 | 0.9 | 92 | 21 |
| Cn1cc(-c2nc(C(=O)NCc3ccccc3F)c(N)nc2-c2ncco2)ccc1=O [Example 109, 3-amino-N-(2-fluorobenzyl)-6-(1-methyl-6-oxo-1,6-dihydropyridin-3-yl)-5-(oxazol-2-yl)pyrazine-2-carboxamide] | 486 | 13 | 240 | 20 |
| Cc1cnc2ccc(-c3nc(C(=O)NCCC(=O)N4CCCCC4)c(N)nc3-c3ncco3)cn12 [Example 215, 3-amino-6-(3-methylimidazo[1,2-a]pyridin-6-yl)-5-(oxazol-2-yl)-N-(3-oxo-3-(piperidin-1-yl)propyl)pyrazine-2-carboxamide] | 891 | 12 | 568 | 9.6 |
| COc1cccc(CNC(=O)c2nc(-c3ccc(=O)n(C)c3)c(-c3ncco3)nc2N)n1 [Example 17] | 951 | 117 | ≥ 10000 | 132 |
| CN1CCC[C@H]1CNC(=O)c1nc(-c2ccc3ncn(C)c3c2)c(-n2nccn2)nc1N [Example 130, 3-amino-6-(1-methyl-1H-1,3-benzodiazol-6-yl)-N-[[(2S)-1-methylpyrrolidin-2-yl]methyl]-5-(2H-1,2,3-triazol-2-yl)pyrazine-2-carboxamide] | 10000 | 295 | ≥ 10000 | 2800 |
| Cn1cc(-c2nc(C(=O)NCc3c(F)cccc3OC(F)F)c(N)nc2-c2ccc(F)cc2)ccc1=O [Example 73, 3-amino-N-(2-(difluoromethoxy)-6-fluorobenzyl)-5-(4-fluorophenyl)-6-(1-methyl-6-oxo-1,6-dihydropyridin-3-yl) pyrazine-2-carboxamide] | 20 | 0.4 | 8.1 | 4.2 |
| CNC(=O)CCNC(=O)c1nc(-c2ccc3ncc(C)n3c2)c(-c2ncco2)nc1N [Example 225, 3-amino-N-(3-(methylamino)-3-oxopropyl)-6-(3-methylimidazo[1,2-a]pyridin-6-yl)-5-(oxazol-2-yl)pyrazine-2-carboxamide] | > 10000 | 32 | 254 | 177 |
| Cc1cc(-c2nc(C(=O)NCc3ccccc3C(F)F)c(N)nc2-c2ccc(F)cc2)cc(C)n1 [Example 55, 3-amino-N-(2-(difluoromethyl)benzyl)-6-(2,6-dimethylpyridin-4-yl)-5-(4-fluorophenyl)pyrazine-2-carboxamide] | 413 | 133 | 4440 | 1590 |
| COC[C@@H](C)NC(=O)c1nc(-c2ccc3ncc(C)n3c2)c(-c2ncco2)nc1N [Example 159, (R)-3-amino-N-(1-methoxypropan-2-yl)-6-(3-methylimidazo[1,2-a]pyridin-6-yl)-5-(oxazol-2-yl)pyrazine-2-carboxamide] | > 10000 | 5.31 | 1640 | 13.2 |
| Cc1cnc2ccc(-c3nc(C(=O)NCCS(C)(=O)=O)c(N)nc3-c3ccc(F)cc3)cn12 [Example 150, 3-amino-5-(4-fluorophenyl)-6-(3-methylimidazo[1,2-a]pyridin-6-yl)-N-(2-(methylsulfonyl)ethyl)pyrazine-2-carboxamide] | 26 | 3.4 | 108 | 6.5 |
| Nc1nc(-c2ncco2)c(-c2ccc(=O)n(C3COC3)c2)nc1C(=O)NCc1c(F)cccc1F [Example 42, 3-amino-N-[(2,6-difluorophenyl)methyl]-5-(1,3-oxazol-2-yl)-6-[1-(oxetan-3-yl)-6-oxo-1,6-dihydropyridin-3-yl]pyrazine-2-carboxamide] | 51 | 14 | 102 | 16 |
| Cc1cnc2ccc(-c3nc(C(=O)NCCC#N)c(N)nc3-c3ncco3)cn12 [Example 142, 3-amino-N-(2-cyanoethyl)-6-(3-methyl-imidazo[1,2-a]pyridin-6-yl)-5-(oxazol-2-yl)pyrazine-2-carboxamide] | 10000 | 10 | 319 | 73 |
